Measurements reported in patent US7704995B2 (Exelixis, Inc., priority 2003, dated 2010).
pIC50: −log10 of the molar value.

Target: T1, Chk1 (Homo sapiens, UniProt O14757)
T1 construct: purchased Upstate Biotechnology
T1 sequence (O14757 1-476): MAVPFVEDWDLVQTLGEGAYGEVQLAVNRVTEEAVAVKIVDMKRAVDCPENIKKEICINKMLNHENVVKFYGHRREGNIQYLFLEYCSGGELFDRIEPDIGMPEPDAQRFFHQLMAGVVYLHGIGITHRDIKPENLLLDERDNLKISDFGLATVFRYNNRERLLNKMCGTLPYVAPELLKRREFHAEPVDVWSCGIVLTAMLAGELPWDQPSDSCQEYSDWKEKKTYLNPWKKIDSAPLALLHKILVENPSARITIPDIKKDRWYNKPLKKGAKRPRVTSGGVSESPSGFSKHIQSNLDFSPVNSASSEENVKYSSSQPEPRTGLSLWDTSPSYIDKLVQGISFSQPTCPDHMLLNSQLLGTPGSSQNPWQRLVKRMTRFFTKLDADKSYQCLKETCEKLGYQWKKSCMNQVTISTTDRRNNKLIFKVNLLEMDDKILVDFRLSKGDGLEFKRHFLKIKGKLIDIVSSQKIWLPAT
Assay: Chk1 kinase assay: incorporation of γ-33P ATP into immobilized myelin basic protein
Format: biochemical
Details: Table 11; Chk1 only; read-out: Chk1 IC50
Method in brief: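 Chk1 (10 nM) or Chk2 (20 nM) phosphorylated plate-immobilized myelin basic protein for 1 h at room temperature in Hepes pH 7.6 buffer with MgCl2, DTT, 1% DMSO, γ-33P ATP plus 10 μM (Chk1) or 30 μM (Chk2) unlabeled ATP. Bound radioactivity counted by scintillation; IC50 determined, Ki derivable from IC50.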

SMILES	pIC50
NC(=O)c1nc(-c2cccc(C(=O)NCc3ccccc3)c2)cnc1N [Example 667, 3-amino-6-(3-{[(phenylmethyl)amino]carbonyl}phenyl)pyrazine-2-carboxamide]	6.00 to 7.30
N=C(NNc1nccc(C(F)(F)F)n1)c1nc(-c2cccc(C(=O)NCc3ccccc3)c2)cnc1N [Example 668, 3-[5-amino-6-(imino{2-[4-(trifluoromethyl)pyrimidin-2-yl]hydrazino}methyl)pyrazin-2-yl]-N-(phenylmethyl)benzamide]	5.00 to 6.00
N=C(NNc1nc2ccccc2s1)c1nc(-c2cccc(C(=O)NCc3ccccc3)c2)cnc1N [Example 669, 3-{5-amino-6-[[2-(1,3-benzothiazol-2-yl)hydrazino](imino)methyl]pyrazin-2-yl}-N-(phenylmethyl)benzamide]	≤ 5.00
Nc1ncc(-c2cccc(C(=O)NCc3ccccc3)c2)nc1-c1nc(-c2ccccc2)n(-c2ccccc2)n1 [Example 670, 3-[5-amino-6-(1,5-diphenyl-1H-1,2,4-triazol-3-yl)pyrazin-2-yl]-N-(phenylmethyl)benzamide]	≤ 5.00
Cc1nc(-c2nc(-c3cccc(C(=O)NCc4ccccc4)c3)cnc2N)nn1C [Example 671, 3-[5-amino-6-(1,5-dimethyl-1H-1,2,4-triazol-3-yl)pyrazin-2-yl]-N-(phenylmethyl)benzamide]	5.00 to 6.00
Cn1nc(-c2nc(-c3cccc(C(=O)NCc4ccccc4)c3)cnc2N)nc1-c1ccccc1 [Example 672, 3-[5-amino-6-(1-methyl-5-phenyl-1H-1,2,4-triazol-3-yl)pyrazin-2-yl]-N-(phenylmethyl)benzamide]	≤ 5.00
COC[C@H]1CCCN1/N=C(\C)c1nc(-c2cccc(C(=O)NCc3ccccc3)c2)cnc1N [Example 673, 3-[5-amino-6-((1E)-N-{(2R)-2-[(methyloxy)methyl]pyrrolidin-1-yl}ethanimidoyl)pyrazin-2-yl]-N-(phenylmethyl)benzamide]	6.00 to 7.30
C/C(=N\N1CCCCCC1)c1nc(-c2cccc(C(=O)NCc3ccccc3)c2)cnc1N [Example 674, 3-{5-amino-6-[(1E)-N-azepan-1-ylethanimidoyl]pyrazin-2-yl}-N-(phenylmethyl)benzamide]	6.00 to 7.30
Nc1ncc(-c2cccc(C(=O)NCc3ccccc3)c2)nc1/C=N/NCc1ccccc1 [Example 675, 3-(5-amino-6-{(E)-[(phenylmethyl)hydrazono]methyl}pyrazin-2-yl)-N-(phenylmethyl)benzamide]	≤ 5.00
N=C(N)N/N=C/c1nc(-c2cccc(C(=O)NCc3ccccc3)c2)cnc1N [Example 676, 3-[5-amino-6-((E)-{[amino(imino)methyl]hydrazono}methyl)pyrazin-2-yl]-N-(phenylmethyl)benzamide]	≤ 5.00
Nc1ncc(-c2cccc(C(=O)NCc3ccccc3)c2)nc1/C=N/NCCO [Example 677, 3-(5-amino-6-{(E)-[(2-hydroxyethyl)hydrazono]methyl}pyrazin-2-yl)-N-(phenylmethyl)benzamide]	5.00 to 6.00
Nc1ncc(-c2cccc(C(=O)NCc3ccccc3)c2)nc1/C=N/Nc1ccccn1 [Example 678, 3-{5-amino-6-[(E)-(pyridin-2-ylhydrazono)methyl]pyrazin-2-yl}-N-(phenylmethyl)benzamide]	≤ 5.00
N#Cc1ccc(N/N=C/c2nc(-c3cccc(C(=O)NCc4ccccc4)c3)cnc2N)cc1 [Example 679, 3-(5-amino-6-{(E)-[(4-cyanophenyl)hydrazono]methyl}pyrazin-2-yl)-N-(phenylmethyl)benzamide]	≤ 5.00
Cc1ccc(N/N=C/c2nc(-c3cccc(C(=O)NCc4ccccc4)c3)cnc2N)cc1 [Example 680, 3-(5-amino-6-{(E)-[(4-methylphenyl)hydrazono]methyl}pyrazin-2-yl)-N-(phenylmethyl)benzamide]	≤ 5.00
Nc1ncc(-c2cccc(C(=O)NCc3ccccc3)c2)nc1/C=N/O [Example 681, 3-{5-amino-6-[(E)-(hydroxyimino)methyl]pyrazin-2-yl}-N-(phenylmethyl)benzamide]	5.00 to 6.00
Nc1ncc(-c2cccc(CO)c2)nc1-c1nc(-c2ccccn2)n[nH]1 [Example 682, {3-[5-amino-6-(3-pyridin-2-yl-1H-1,2,4-triazol-5-yl)pyrazin-2-yl]phenyl}methanol]	5.00 to 6.00

SMILES	pIC50
Nc1ncc(-c2cccc(CN[C@@H]3CCc4ccccc43)c2)nc1-c1nc(C2CCCNC2)n[nH]1 (stereo partly drawn) [Example 683, 5-(3-{[(1R)-2,3-dihydro-1H-inden-1-ylamino]methyl}phenyl)-3-(3-piperidin-3-yl-1H-1,2,4-triazol-5-yl)pyrazin-2-amine]	> 7.30
CN(C)c1ccc(C(=O)NCCCNC(=O)c2nc(-c3cccc(C(=O)NCc4ccccc4)c3)cnc2N)cc1 [Example 684, 3-amino-N-[3-({[4-(dimethylamino)phenyl]carbonyl}amino)propyl]-6-(3-{[(phenylmethyl)amino]carbonyl}phenyl)pyrazine-2-carboxamide]	≤ 5.00
Nc1ncc(-c2cccc(CN[C@H]3CCc4ccccc43)c2)nc1C(=O)N[C@H]1CCNC1 [Example 685, 3-amino-6-(3-{[(1S)-2,3-dihydro-1H-inden-1-ylamino]methyl}phenyl)-N-[(3S)-pyrrolidin-3-yl]pyrazine-2-carboxamide]	> 7.30
CC(C)(C)OC(=O)N1CCC(N2CC[C@H](NC(=O)c3nc(-c4cccc(C(=O)NCc5ccccc5)c4)cnc3N)C2)CC1 [Example 686, 1,1-dimethylethyl 4-[(3S)-3-({[3-amino-6-(3-{[(phenylmethyl)amino]carbonyl}phenyl)pyrazin-2-yl]carbonyl}amino)pyrrolidin-1-yl]piperidine-1-carboxylate]	5.00 to 6.00
Nc1ncc(-c2cccc(C(=O)NCc3ccccc3)c2)nc1C(=O)N[C@H]1CCN(C2CCNCC2)C1 [Example 687, 3-amino-6-(3-{[(phenylmethyl)amino]carbonyl}phenyl)-N-[(3S)-1-piperidin-4-ylpyrrolidin-3-yl]pyrazine-2-carboxamide]	5.00 to 6.00
CC(C)(C)OC(=O)N1CCC[C@@H]1CN1CC[C@H](NC(=O)c2nc(-c3cccc(C(=O)NCc4ccccc4)c3)cnc2N)C1 [Example 688, 1,1-dimethylethyl (2R)-2-{[(3S)-3-({[3-amino-6-(3-{[(phenylmethyl)amino]carbonyl}phenyl)pyrazin-2-yl]carbonyl}amino)pyrrolidin-1-yl]methyl}pyrrolidine-1-carboxylate]	≤ 5.00
Nc1ncc(-c2cccc(C(=O)NCc3ccccc3)c2)nc1C(=O)N[C@H]1CCN(C[C@H]2CCCN2)C1 [Example 689, 3-amino-6-(3-{[(phenylmethyl)amino]carbonyl}phenyl)-N-{(3S)-1-[(2R)-pyrrolidin-2-ylmethyl]pyrrolidin-3-yl}pyrazine-2-carboxamide]	5.00 to 6.00
CN(C)c1ccc(CN2CC[C@H](NC(=O)c3nc(-c4cccc(C(=O)NCc5ccccc5)c4)cnc3N)C2)cc1 [Example 690, 3-amino-N-((3S)-1-{[4-(dimethylamino)phenyl]methyl}pyrrolidin-3-yl)-6-(3-{[(phenylmethyl)amino]carbonyl}phenyl)pyrazine-2-carboxamide]	5.00 to 6.00
CN(C)c1ccc(NC(=O)NCCNC(=O)c2nc(-c3cccc(C(=O)NCc4ccccc4)c3)cnc2N)cc1 [Example 691, 3-amino-N-{2-[({[4-(dimethylamino)phenyl]amino}carbonyl)amino]ethyl}-6-(3-{[(phenylmethyl)amino]carbonyl}phenyl)pyrazine-2-carboxamide]	≤ 5.00
CN(C)c1ccc(C(=O)NCCNC(=O)c2nc(-c3cccc(C(=O)NCc4ccccc4)c3)cnc2N)cc1 [Example 692, 3-amino-N-[2-({[4-(dimethylamino)phenyl]carbonyl}amino)ethyl]-6-(3-{[(phenylmethyl)amino]carbonyl}phenyl)pyrazine-2-carboxamide]	≤ 5.00
N=C(NNc1ccccn1)c1nc(-c2cccc(C(=O)NCc3ccccc3)c2)cnc1N [Example 693, 3-{5-amino-6-[imino(2-pyridin-2-ylhydrazino)methyl]pyrazin-2-yl}-N-(phenylmethyl)benzamide]	≤ 5.00
Nc1ncc(-c2cccc(C(=O)NCc3ccccc3)c2)nc1CN1CCOCC1 [Example 694, 3-[5-amino-6-(morpholin-4-ylmethyl)pyrazin-2-yl]-N-(phenylmethyl)benzamide]	≤ 5.00
CCOC(=O)C1CCN(Cc2nc(-c3cccc(C(=O)NCc4ccccc4)c3)cnc2N)CC1 [Example 695, ethyl 1-{[3-amino-6-(3-{[(phenylmethyl)amino]carbonyl}phenyl)pyrazin-2-yl]methyl}piperidine-4-carboxylate]	≤ 5.00
Nc1ncc(-c2cccc(C(=O)NCc3ccccc3)c2)nc1C(=O)N[C@H]1CCN(Cc2ccccn2)C1 [Example 696, 3-amino-6-(3-{[(phenylmethyl)amino]carbonyl}phenyl)-N-[(3S)-1-(pyridin-2-ylmethyl)pyrrolidin-3-yl]pyrazine-2-carboxamide]	6.00 to 7.30
COC(=O)[C@@H](NC(=O)c1nc(-c2cccc(C(=O)NCc3ccccc3)c2)cnc1N)[C@@H](C)O [Example 697, methyl N-{[3-amino-6-(3-{[(phenylmethyl)amino]carbonyl}phenyl)pyrazin-2-yl]carbonyl}threoninate]	≤ 5.00
